Columns and labels:
THZ1 [1] = compound: T1, CN(C)C/C=C/C(=O)Nc1ccc(C(=O)Nc2cccc(Nc3ncc(Cl)c(-c4c[nH]c5ccccc45)n3)c2)cc1 [THZ1]; assay: GR value, 72 h; higher = faster growth (1 = untreated, <0 = killing);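 further: breast cancer and non-malignant breast epithelial lines, nine half-log doses, viable cells counted by Hoechst and LIVE/DEAD dye imaging versus time-zero plates and DMSO controls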
Neratinib/HKI272 [2] = compound: T2, CCOc1cc2ncc(C#N)c(Nc3ccc(OCc4ccccn4)c(Cl)c3)c2cc1NC(=O)/C=C/CN(C)C [Neratinib/HKI272]; assay: as above
THZ531 = compound: CN(C)C/C=C/C(=O)Nc1ccc(C(=O)N2CCC[C@@H](Nc3ncc(Cl)c(-c4c[nH]c5ccccc45)n3)C2)cc1 [THZ531]; assay: increase in dead-cell fraction, 72 h; higher = more death;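 further: breast cancer cell lines in 384-well plates, stained with Hoechst plus LIVE/DEAD far red dye and imaged, cells above an LDR intensity threshold counted dead, Hoechst-negative corpses included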
LEE011/Ribociclib = compound: CN(C)C(=O)c1cc2cnc(Nc3ccc(N4CCNCC4)cn3)nc2n1C1CCCC1 [LEE011/Ribociclib]; assay: as above
THZ1 [3] = compound: T1, THZ1; assay: as above
[4] = compound: CC(=O)c1c(C)c2cnc(Nc3ccc(N4CCNCC4)cn3)nc2n(C2CCCC2)c1=O; assay: as above
Neratinib/HKI272 [5] = compound: T2, Neratinib/HKI272; assay: as above
[6] = compound: CCN1CCN(Cc2ccc(Nc3ncc(F)c(-c4cc(F)c5nc(C)n(C(C)C)c5c4)n3)nc2)CC1; assay: as above
[7] = compound: CCc1cnn2c(NCc3ccc[n+]([O-])c3)cc(N3CCCC[C@H]3CCO)nc12; assay: as above
YKL-5-124 = compound: C=CC(=O)Nc1ccc(C(=O)Nc2[nH]nc3c2CN(C(=O)N[C@H](CN(C)C)c2ccccc2)C3(C)C)cc1 [YKL-5-124]; assay: as above
Flavopiridol = compound: CN1CC[C@H](c2c(O)cc(O)c3c(=O)cc(-c4ccccc4Cl)oc23)[C@H](O)C1 [Flavopiridol]; assay: as above
BSJ-03-123 = compound: CC(=O)c1c(C)c2cnc(Nc3ccc(N4CCN(CCOCCOCCOCCNC(=O)COc5cccc6c5C(=O)N(C5CCC(=O)NC5=O)C6=O)CC4)cn3)nc2n(C2CCCC2)c1=O [BSJ-03-123]; assay: as above

## MDAMB436
THZ1 [1]; 0.0001 µM
  GR value: 0.928 GR
THZ1 [1]; 0.0003162 µM
  GR value: 1.07 GR
THZ1 [1]; 0.001 µM
  GR value: 1.03 GR
THZ1 [1]; 0.003162 µM
  GR value: 1.02 GR
THZ1 [1]; 0.01 µM
  GR value: 1.1 GR
THZ1 [1]; 0.03162 µM
  GR value: 1.02 GR
THZ1 [1]; 0.1 µM
  GR value: 0.478 GR
THZ1 [1]; 0.3162 µM
  GR value: 0.229 GR
THZ1 [1]; 1 µM
  GR value: -0.138 GR
Neratinib/HKI272 [2]; 0.0003162 µM
  GR value: 1 GR
Neratinib/HKI272 [2]; 0.001 µM
  GR value: 0.997 GR
Neratinib/HKI272 [2]; 0.003162 µM
  GR value: 1.03 GR
Neratinib/HKI272 [2]; 0.01 µM
  GR value: 1.04 GR
Neratinib/HKI272 [2]; 0.03162 µM
  GR value: 0.993 GR
Neratinib/HKI272 [2]; 0.1 µM
  GR value: 0.878 GR
Neratinib/HKI272 [2]; 0.3162 µM
  GR value: 0.641 GR
Neratinib/HKI272 [2]; 1 µM
  GR value: 0.43 GR
Neratinib/HKI272 [2]; 3.162 µM
  GR value: 0.0253 GR
THZ531; 0.0001 µM
  increase in dead-cell fraction: -0.0141
THZ531; 0.0003162 µM
  increase in dead-cell fraction: -0.004
THZ531; 0.001 µM
  increase in dead-cell fraction: 0.0035
THZ531; 0.003162 µM
  increase in dead-cell fraction: -0.0059
THZ531; 0.01 µM
  increase in dead-cell fraction: -0.0057
THZ531; 0.03162 µM
  increase in dead-cell fraction: 0.0007
THZ531; 0.1 µM
  increase in dead-cell fraction: 0.0043
THZ531; 0.3162 µM
  increase in dead-cell fraction: 0.0247
THZ531; 1 µM
  increase in dead-cell fraction: 0.0705
LEE011/Ribociclib; 0.001 µM
  increase in dead-cell fraction: -0.0008
LEE011/Ribociclib; 0.003162 µM
  increase in dead-cell fraction: -0.0095
LEE011/Ribociclib; 0.01 µM
  increase in dead-cell fraction: -0.0034
LEE011/Ribociclib; 0.03162 µM
  increase in dead-cell fraction: -0.0032
LEE011/Ribociclib; 0.1 µM
  increase in dead-cell fraction: 0.0007
LEE011/Ribociclib; 0.3162 µM
  increase in dead-cell fraction: -0.0014
LEE011/Ribociclib; 1 µM
  increase in dead-cell fraction: -0.0035
LEE011/Ribociclib; 3.162 µM
  increase in dead-cell fraction: -0.0137
LEE011/Ribociclib; 10 µM
  increase in dead-cell fraction: 0.0049
THZ1 [3]; 0.0001 µM
  increase in dead-cell fraction: 0.0026
THZ1 [3]; 0.0003162 µM
  increase in dead-cell fraction: -0.0097
THZ1 [3]; 0.001 µM
  increase in dead-cell fraction: -0.0017
THZ1 [3]; 0.003162 µM
  increase in dead-cell fraction: -0.0001
THZ1 [3]; 0.01 µM
  increase in dead-cell fraction: -0.006
THZ1 [3]; 0.03162 µM
  increase in dead-cell fraction: -0.0078
THZ1 [3]; 0.1 µM
  increase in dead-cell fraction: 0.0476
THZ1 [3]; 0.3162 µM
  increase in dead-cell fraction: 0.0477
THZ1 [3]; 1 µM
  increase in dead-cell fraction: 0.0644
[4]; 0.0003162 µM
  increase in dead-cell fraction: -0.0017
[4]; 0.001 µM
  increase in dead-cell fraction: 0.0024
[4]; 0.003162 µM
  increase in dead-cell fraction: -0.0027
[4]; 0.01 µM
  increase in dead-cell fraction: -0.0025
[4]; 0.03162 µM
  increase in dead-cell fraction: 0
[4]; 0.1 µM
  increase in dead-cell fraction: 0.0005
[4]; 0.3162 µM
  increase in dead-cell fraction: -0.0024
[4]; 1 µM
  increase in dead-cell fraction: -0.0052
[4]; 3.162 µM
  increase in dead-cell fraction: 0.0044
Neratinib/HKI272 [5]; 0.0003162 µM
  increase in dead-cell fraction: 0.0013
Neratinib/HKI272 [5]; 0.001 µM
  increase in dead-cell fraction: 0.0034
Neratinib/HKI272 [5]; 0.003162 µM
  increase in dead-cell fraction: -0.0005
Neratinib/HKI272 [5]; 0.01 µM
  increase in dead-cell fraction: 0.0014
Neratinib/HKI272 [5]; 0.03162 µM
  increase in dead-cell fraction: 0.0028
Neratinib/HKI272 [5]; 0.1 µM
  increase in dead-cell fraction: 0.0066
Neratinib/HKI272 [5]; 0.3162 µM
  increase in dead-cell fraction: 0.0167
Neratinib/HKI272 [5]; 1 µM
  increase in dead-cell fraction: 0.0223
Neratinib/HKI272 [5]; 3.162 µM
  increase in dead-cell fraction: 0.0987
[6]; 0.001 µM
  increase in dead-cell fraction: 0.0024
[6]; 0.003162 µM
  increase in dead-cell fraction: -0.005
[6]; 0.01 µM
  increase in dead-cell fraction: 0.0007
[6]; 0.03162 µM
  increase in dead-cell fraction: -0.0009
[6]; 0.1 µM
  increase in dead-cell fraction: 0.0076
[6]; 0.3162 µM
  increase in dead-cell fraction: 0.0116
[6]; 1 µM
  increase in dead-cell fraction: 0.0346
[6]; 3.162 µM
  increase in dead-cell fraction: 0.0531
[6]; 10 µM
  increase in dead-cell fraction: 0.316
[7]; 0.0001 µM
  increase in dead-cell fraction: -0.0027
[7]; 0.0003162 µM
  increase in dead-cell fraction: -0.0028
[7]; 0.001 µM
  increase in dead-cell fraction: 0.0008
[7]; 0.003162 µM
  increase in dead-cell fraction: 0.0055
[7]; 0.01 µM
  increase in dead-cell fraction: 0.0157
[7]; 0.03162 µM
  increase in dead-cell fraction: 0.0896
[7]; 0.1 µM
  increase in dead-cell fraction: 0.0459
[7]; 0.3162 µM
  increase in dead-cell fraction: 0.0256
[7]; 1 µM
  increase in dead-cell fraction: 0.035
YKL-5-124; 0.001 µM
  increase in dead-cell fraction: -0.0039
YKL-5-124; 0.003162 µM
  increase in dead-cell fraction: 0.0007
YKL-5-124; 0.01 µM
  increase in dead-cell fraction: 0.019
YKL-5-124; 0.03162 µM
  increase in dead-cell fraction: 0.0153
YKL-5-124; 0.1 µM
  increase in dead-cell fraction: 0.0342
YKL-5-124; 0.3162 µM
  increase in dead-cell fraction: 0.0446
YKL-5-124; 1 µM
  increase in dead-cell fraction: 0.0289
YKL-5-124; 3.162 µM
  increase in dead-cell fraction: 0.027
YKL-5-124; 10 µM
  increase in dead-cell fraction: 0.132
Flavopiridol; 0.0001 µM
  increase in dead-cell fraction: 0.003
Flavopiridol; 0.0003162 µM
  increase in dead-cell fraction: -0.0059
Flavopiridol; 0.001 µM
  increase in dead-cell fraction: -0.0173
Flavopiridol; 0.003162 µM
  increase in dead-cell fraction: 0.0048
Flavopiridol; 0.01 µM
  increase in dead-cell fraction: -0.0068
Flavopiridol; 0.03162 µM
  increase in dead-cell fraction: -0.002
Flavopiridol; 0.1 µM
  increase in dead-cell fraction: 0.0119
Flavopiridol; 0.3162 µM
  increase in dead-cell fraction: 0.0798
Flavopiridol; 1 µM
  increase in dead-cell fraction: 0.0954
BSJ-03-123; 0.001 µM
  increase in dead-cell fraction: -0.0105
BSJ-03-123; 0.003162 µM
  increase in dead-cell fraction: 0.0015
BSJ-03-123; 0.01 µM
  increase in dead-cell fraction: 0.0056
BSJ-03-123; 0.03162 µM
  increase in dead-cell fraction: -0.0027
BSJ-03-123; 0.1 µM
  increase in dead-cell fraction: 0.0104
BSJ-03-123; 0.3162 µM
  increase in dead-cell fraction: 0.0058
BSJ-03-123; 1 µM
  increase in dead-cell fraction: -0.0041
BSJ-03-123; 3.162 µM
  increase in dead-cell fraction: 0.0011
BSJ-03-123; 10 µM
  increase in dead-cell fraction: 0.0742

Source: the supplement of paper PMC9663587
